Experimental data as given in patent US20230084515A1, “THERAPEUTIC METHODS AND COMPOSITIONS FOR TREATING CANCER USING BRAF AND/OR MEK INHIBITOR COMBINATION THERAPY” (Vanderbilt University, priority 2020, published 2023).

Legend:
SC10 = assay: Proliferation assay (population growth curves, DIP rates) in SKMEL5 subline SC10; type: cell-based, human; conditions: for effect of combination with BRAFi on proliferation (DIP rates): combination with PLX4720 8 μM
Experimental: The cells are labeled lentivirally with a fluorescent, nuclear tag (Histone 2B monomeric Red Fluorescent Protein, H2BmRFP from AddGene), flow sorted for H2BmRFP positivity (top 10-15% brightest), and fluorescently counted under drug treatments. Cells are seeded into 96 well plates (1-5,000 cells per well) and drug treatments applied the following day, including DMSO or PBS control (all concentrations contained equal percentage of DMSO or PBS solvent). Images are taken every 8-12 hours with sufficient image alignment (montaging) in order to capture about 25-100 cells per well/treatment (over the course of the experiment, cell counts typically exceed 1,000 in DMSO or low drug concentration wells). Direct measurements of cell counts are made using Cellavista software and Image J macros. The images are filtered through these computer programs to track and label each cell, quantifying the number of cells in each time-stamped frame. Proliferation is platted as log2 normalized growth, using the initial cell count from the first image frame for normalization. Dose-response curves are generated using a 2-fold dilution of single drugs at various concentrations ranked highest to zero (zero containing only the solvent the drug was dissolved in, being either DMSO or H2O); all concentrations contained equal volumes of the solvent used. For combinations with PLX4720 (BRAF inhibitor), 8 μM PLX4720 was used as diluent, and serially diluted with the second drug from highest concentration to lowest. The drug-induced proliferation (DIP) rates (see, Harris, L. A., et al. “An unbiased metric of antiproliferative drug effect in vitro,” Nature Methods', 2016, vol. 13, p. 497-500.) are calculated using the slope of the log2-normalized population curves after 24 hrs. BRAF-mutated melanoma cells (SKMEL5, A375, WM793, SKMEL19, SKMEL28, WM164, WM88, A2058) were grown and cultured in Dulbecco's modified Eagle's medium and Ham's F-12 medium (DMEM:F12, 1:1. Cat #11330-032). Media were obtained from Gibco (Grand Island, N.Y.) and supplemented with 10% FBS, All cells were cultured in CO2, temperature-controlled (37° C.), and humidified incubators. Cells were tested for mycoplasma before use and confirmed negative. Cells were passaged 1-2× per week and maintained as exponentially growing cultures for a maximum of less than 2.0 passages. Unless otherwise indicated, cells were seeded 16-24 h prior to treatment to allow cells to adhere to culture plates. Reagents/drugs were prepared in complete medium immediately prior to adding to cells by replacement. PLX4720 (Cat #S1152) and vemurafenib (Cat #S1267) were obtained from Selleckchem (Houston, Tex.) solubilized in dimethyl sulfoxide (DMSO) at a stock concentration of 10 mM. […]

A2058 cells = assay: Proliferation assay (population growth curves, DIP rates) in A2058 cells; type: cell-based, human
Experimental: The cells are labeled lentivirally with a fluorescent, nuclear tag (Histone 2B monomeric Red Fluorescent Protein, H2BmRFP from AddGene), flow sorted for H2BmRFP positivity (top 10-15% brightest), and fluorescently counted under drug treatments. Cells are seeded into 96 well plates (1-5,000 cells per well) and drug treatments applied the following day, including DMSO or PBS control (all concentrations contained equal percentage of DMSO or PBS solvent). Images are taken every 8-12 hours with sufficient image alignment (montaging) in order to capture about 25-100 cells per well/treatment (over the course of the experiment, cell counts typically exceed 1,000 in DMSO or low drug concentration wells). Direct measurements of cell counts are made using Cellavista software and Image J macros. The images are filtered through these computer programs to track and label each cell, quantifying the number of cells in each time-stamped frame. Proliferation is platted as log2 normalized growth, using the initial cell count from the first image frame for normalization. […] The drug-induced proliferation (DIP) rates (see, Harris, L. A., et al. “An unbiased metric of antiproliferative drug effect in vitro,” Nature Methods', 2016, vol. 13, p. 497-500.) are calculated using the slope of the log2-normalized population curves after 24 hrs. […]

SMILES | effect of combination with BRAFi on proliferation (DIP rates) (SC10) | effect of combination with BRAFi on proliferation (DIP rates) (A2058 cells; DPI 250 nM, BRAFi 8 μM, FIG. 6A) | DIP rates under BRAF-inhibition (SC10) | DIP rates under BRAF-inhibition (A2058 cells)
COc1cc(C(C)=O)ccc1O [Apocynin] | synergism |  |  | 
c1ccc2c(c1)[I+]c1ccccc1-2 [DPI, Diphenyleneiodonium chloride] | synergism | enhancement of NOX-inhibition on the anti-proliferative effects of BRAF-inhibition |  | 
CN(C)c1cccc(-c2c3c(=O)n(-c4ccccc4Cl)[nH]c3cc(=O)n2C)c1 [GKT137831] | synergism |  |  | 
CCCS(=O)(=O)Nc1ccc(F)c(C(=O)c2c[nH]c3ncc(Cl)cc23)c1F [PLX4720] |  |  | positive DIP rates | positive DIP rates
